In one assay the target is arylsulfatase A (ASA) (Homo sapiens, UniProt P15289). The following applies: fibroblasts. The protocol: FIG. 2. The effect of lead acetate on intracellular ASA enzymic activity in cultured human fibroblasts. Fibroblasts were grown in vitro as monolayer cultures in the absence or presence of different concentrations of lead acetate as described in the text. The cells were dissolved in buffer containing detergent and the enzymic activity of ASA and other lysosomal enzymes and protein concentration were determined. The data are expressed relative to the control and the s.e.m. at each concentration of lead is indicated.
arylsulfatase A (ASA), sequence (P15289 19-507): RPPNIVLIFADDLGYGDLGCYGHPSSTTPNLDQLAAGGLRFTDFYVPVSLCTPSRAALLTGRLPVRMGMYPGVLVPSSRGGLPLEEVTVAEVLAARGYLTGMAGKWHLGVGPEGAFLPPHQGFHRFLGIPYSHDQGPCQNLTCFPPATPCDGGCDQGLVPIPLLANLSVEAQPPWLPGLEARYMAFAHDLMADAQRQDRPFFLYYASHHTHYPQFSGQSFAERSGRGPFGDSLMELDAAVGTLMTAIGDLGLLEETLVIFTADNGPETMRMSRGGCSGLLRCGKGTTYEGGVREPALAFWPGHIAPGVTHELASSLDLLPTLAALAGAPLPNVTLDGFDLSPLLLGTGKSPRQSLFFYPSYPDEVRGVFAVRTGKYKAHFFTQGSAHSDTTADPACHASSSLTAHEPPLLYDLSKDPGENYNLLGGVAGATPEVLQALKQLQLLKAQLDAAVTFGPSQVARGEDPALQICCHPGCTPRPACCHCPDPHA
The potential effect of lead on cellular levels of ASA was examined in an in vitro system employing human fibroblasts. […] Fibroblast cultures were derived from punch biopsies and maintained in glutamine/penicillin/streptomycin/fetal bovine serum supplemented EMEM or in the same supplemented medium containing 0.5. 5.0. or 20 μM lead acetate. These cultures were split every three cell cycles for a total of 6-12 cell divisions. Fibroblasts in logarithmic growth were washed with PBS and dissolved in 1 mL of PBS containing 0.1% Triton X-100. This suspension was centriftiged for 5 min at 12,000 ×g and the supernatant was employed for determination of ASA and arylsulfatase B (ASB) activities using p-nitrocatechol sulfate as described by Baum et al. [Clin. Chim. Acta 4:453-455 (1959)] and β-galactosidase [Poretz et al., supra]. Each assay was performed in triplicate, and the complete experiment was repeated three times on different occasions for evaluating the effect of lead on cellular levels of ASA.

A further assay deals with partially purified ASA (Homo sapiens, UniProt P15289). The protocol:
FIG. 3. […] A preparation of partially purified human fibroblast ASA containing other lysosomal hydrolases was incubated for 1 hr at 4° C. in the presence of lead acetate as described in the text. ASA and other hydrolase enzymic activities were determined. The data are expressed relative to the control and the s.e.m at each concentration of lead is indicated.
(§1) The direct effect of lead on ASA activity was also studied. […] Human fibroblast ASA was enriched in a preparation of isolated lysosomal enzymes as described by Gorman and Poretz [J. Cell. Physiol. 131:158-164 (1987)]. Lead acetate in buffer was added to protein preparations containing approximately 2 units of ASA activity in a total volume of 2.0 ml and incubated at 4° C. A control lacking lead was also prepared in an identical fashion. Aliquots were removed at 30 min, 1 hr, 24 hr, and 48 hr and analyzed for ASA, β-galactosidase and β-hexosaminidaseactivities. Enzymic and protein analyses were performed in triplicate, and the complete experiment was repeated three times.

The test system of another assay is β-galactosidase. The following applies: similar conditions as for ASA. The protocol: as §1
A further assay deals with β-hexosaminidase. The following applies: every concentration of metal studied. The protocol:
as §1

The subject of a further assay is ASA. The following applies: daily i.p. 100 mg/kg body weight, cited from earlier work.
The next assay deals with isolated lysosomes. The following applies: cited from earlier work.
Another assay deals with rat fibroblasts. As to conditions: lead nitrate in the growth medium; cited from earlier work.

The values below come from US5935790A, “Method for detecting a predisposition to susceptibility to toxic effects of drugs and poisons” (Rutgers, The State University of New Jersey, priority 1997, dated 1999).

The structures appear in SMILES notation. Where two headings read alike, the source gives them in different places.

partially purified ASA, sequence (P15289 19-507): as above

As for `CC(=O)[O-].CC(=O)[O-].[Pb+2]` [lead acetate], on arylsulfatase A (ASA), the “amount of ASA relative to control cells grown without lead” value is on record as no less than 65% and the “reduction of cellular ASA activity” value is 32-36%. The “reduction of cellular ASA specific activity” value on arylsulfatase A (ASA) (0.5 µM) was determined as 14%. The “decrease of ASA lysosomal enzyme activity vs cells in normal medium” value at arylsulfatase A (ASA) (20 µM) is 32-36%. For the same compound, at partially purified ASA (200 μM lead acetate, 4° C., p=0.045), the “loss of ASA activity” value is listed as 67%. Besides, on partially purified ASA (4° C., unchanged up to 48 hr), the “time of maximum effect on ASA activity” value worked out at 1 h. For the same compound, the “effect on partially purified ASA” value at partially purified ASA (100-200 μM lead acetate) is “precipitation of the enzyme and loss of enzymic activity”. Also, the “effect on β-galactosidase activity” value with β-galactosidase is recorded as “no reduction”. The “effect on β-hexosaminidase activity” value in the assay on β-hexosaminidase is reported as “closely paralleled that for ASA activity”. Further, the “reduction in ASA activity vs control animals” value in the assay on ASA (rat kidney) is 20%. In the assay on ASA (rat liver), the “reduction in ASA activity vs control animals” value is reported as 55%. The “decrease in stability of the lysosome” value in the assay with isolated lysosomes was “greater than 200 fold”. For the same compound, the “facilitated calcium transport by isolated lysosomes” value in the assay with isolated lysosomes (lead as low as 300 μM, concentration dependent) was “markedly increased”.

Take `O=[N+]([O-])[O-].O=[N+]([O-])[O-].[Pb+2]` [lead nitrate]: in the assay with rat fibroblasts, the lysosomal membrane stability result is “reduction in lysosomal membrane stability”.
